Data on 13 molecules can be found in US12540137B2, “N-1 branched alkyl ether substituted imidazo[4,5-c]quinoline compounds, compositions, and methods” (Solventum Intellectual Properties Company, priority 2018, dated 2026).

One test has as its target T1, human TLR8 (Homo sapiens, UniProt Q9NR97).
T1 construct: host or cells: HEK293 (HEK-BLUE-hTLR8)
T1 sequence (Q9NR97 27-1041): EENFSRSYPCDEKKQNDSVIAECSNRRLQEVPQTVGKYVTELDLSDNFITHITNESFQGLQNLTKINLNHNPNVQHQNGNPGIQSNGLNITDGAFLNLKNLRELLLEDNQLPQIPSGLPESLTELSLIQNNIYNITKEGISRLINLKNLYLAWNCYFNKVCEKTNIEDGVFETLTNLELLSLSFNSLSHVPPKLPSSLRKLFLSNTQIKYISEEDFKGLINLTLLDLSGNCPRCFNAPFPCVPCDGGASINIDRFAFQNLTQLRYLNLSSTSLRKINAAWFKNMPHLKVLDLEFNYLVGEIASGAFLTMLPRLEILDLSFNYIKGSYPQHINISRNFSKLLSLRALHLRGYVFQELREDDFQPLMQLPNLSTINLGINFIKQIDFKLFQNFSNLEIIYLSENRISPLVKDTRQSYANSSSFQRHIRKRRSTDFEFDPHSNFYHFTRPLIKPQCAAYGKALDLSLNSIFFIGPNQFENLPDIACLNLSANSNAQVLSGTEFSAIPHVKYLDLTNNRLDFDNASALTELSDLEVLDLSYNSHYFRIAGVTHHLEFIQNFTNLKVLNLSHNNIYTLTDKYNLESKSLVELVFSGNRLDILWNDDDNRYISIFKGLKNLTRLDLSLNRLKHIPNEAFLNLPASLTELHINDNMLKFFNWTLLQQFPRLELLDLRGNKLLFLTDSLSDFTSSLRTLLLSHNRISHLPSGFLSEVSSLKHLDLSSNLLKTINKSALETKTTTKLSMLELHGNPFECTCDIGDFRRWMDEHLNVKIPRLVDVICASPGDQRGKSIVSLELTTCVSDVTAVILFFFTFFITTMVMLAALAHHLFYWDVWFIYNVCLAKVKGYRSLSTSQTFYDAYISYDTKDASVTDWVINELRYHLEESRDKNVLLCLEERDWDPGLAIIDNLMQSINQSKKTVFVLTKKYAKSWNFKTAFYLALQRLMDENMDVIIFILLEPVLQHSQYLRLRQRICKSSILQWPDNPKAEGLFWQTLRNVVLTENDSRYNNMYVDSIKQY
Kind of test: TLR activation, HEK-BLUE-hTLR8 SEAP reporter cells. The settings on record: 16-20 hours, SEAP response at least 2× vehicle control, tested 0.01-30 micromolar. The test is classed as cell-based. On the procedure:
(§1) HEK-BLUE-hTLR7 or hTLR8 reporter cells were obtained from InvivoGen, San Diego, CA. According to the manufacturer's description, these reporter cells were prepared by co-transfection of HEK293 cells with an inducible secreted embryonic alkaline phosphatase (SEAP) reporter gene and either the human TLR7 or TLR8 gene. The SEAP reporter gene was placed under the control of an IFN−β minimal promoter fused to five NF-κB and AP-1-binding sites. In the presence of a TLR ligand, activation of NF-κB and AP-1 occurs, resulting in a corresponding increase in SEAP levels.
(§2) In the assay, the HEK cells were grown and maintained using standard cell culture techniques in a growth medium that contained Dulbecco's Modified Eagle Medium (ThermoFisher Scientific Incorporated, Waltham, MA) supplemented with 1% penicillin/streptomycin and 10% heat-inactivated Gibco fetal bovine serum (ThermoFisher Scientific). Each compound was solubilized in DMSO to create a 3 mM stock solution. The stock solution was then further diluted with the growth medium to prepare serial dilutions. Each test compound was tested at a concentration of 30, 10, 3.3, 1.1, 0.37, 0.12, 0.04, and 0.01 micromolar using a 96-well format with 5×10^4 cells and 200 microliters of growth medium per well.
(§3) For each compound, hTLR7, hTLR8, and their respective null control HEK cells were screened. DMSO serially diluted into the growth medium served as the vehicle control. Cell culture supernatants containing the SEAP reporter were collected after an incubation period of 16-20 hours in a cell culture incubator (37° C. and 5% CO2), and either analyzed immediately or stored at −80° C. SEAP levels were measured using the colorimetric enzyme assay (QUANTI-BLUE (InvivoGen) according to manufacturer's instructions.
(§4) Specifically, the minimum effective concentration of each compound (micromolar) was determined as the lowest concentration of the compound that produced a SEAP expression response at least 2× greater than that observed with the vehicle control wells.

The target in the next test is T2, human TLR7 (Homo sapiens, UniProt Q9NYK1).
T2 construct: host or cells: HEK293 (HEK-BLUE-hTLR7)
T2 sequence (Q9NYK1 27-1049): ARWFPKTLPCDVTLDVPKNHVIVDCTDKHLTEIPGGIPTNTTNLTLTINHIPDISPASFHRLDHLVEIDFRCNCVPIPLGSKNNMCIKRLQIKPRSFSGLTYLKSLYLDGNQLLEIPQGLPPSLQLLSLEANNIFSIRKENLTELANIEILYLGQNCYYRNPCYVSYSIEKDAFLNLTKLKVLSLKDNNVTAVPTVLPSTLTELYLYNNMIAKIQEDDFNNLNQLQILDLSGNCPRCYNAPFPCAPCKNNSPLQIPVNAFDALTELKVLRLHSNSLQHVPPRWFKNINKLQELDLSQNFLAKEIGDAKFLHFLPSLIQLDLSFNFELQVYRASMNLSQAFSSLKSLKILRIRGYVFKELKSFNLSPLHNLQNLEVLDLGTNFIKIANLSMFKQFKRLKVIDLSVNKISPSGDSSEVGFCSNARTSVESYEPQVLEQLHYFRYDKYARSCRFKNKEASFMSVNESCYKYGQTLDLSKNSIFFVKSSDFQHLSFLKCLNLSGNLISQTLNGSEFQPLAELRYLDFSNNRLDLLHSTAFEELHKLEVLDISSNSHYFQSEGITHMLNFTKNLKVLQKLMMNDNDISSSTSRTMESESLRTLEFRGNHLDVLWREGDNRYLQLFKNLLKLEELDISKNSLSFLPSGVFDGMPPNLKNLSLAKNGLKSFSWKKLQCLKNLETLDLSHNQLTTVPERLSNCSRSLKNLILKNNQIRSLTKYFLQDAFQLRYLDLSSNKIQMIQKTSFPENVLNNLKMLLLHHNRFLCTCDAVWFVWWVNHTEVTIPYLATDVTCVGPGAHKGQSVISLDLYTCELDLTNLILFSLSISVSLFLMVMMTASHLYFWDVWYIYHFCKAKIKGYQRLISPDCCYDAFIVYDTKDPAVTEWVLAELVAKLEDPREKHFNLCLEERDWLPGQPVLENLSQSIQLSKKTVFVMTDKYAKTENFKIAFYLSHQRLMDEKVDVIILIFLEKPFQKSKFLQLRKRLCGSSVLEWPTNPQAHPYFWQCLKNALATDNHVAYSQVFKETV
As to the kind of experiment: TLR activation, HEK-BLUE-hTLR7 SEAP reporter cells. It is filed as cell-based. Particulars: 16-20 hours, SEAP response at least 2× vehicle control, tested 0.01-30 micromolar. On the procedure: as §1, §2, §3, §4

With `CCOC[C@H](C(C)C)n1cnc2c(N)nc3ccccc3c21` [Example 1, 1-[(1S)-1-(ethoxymethyl)-2-methyl-propyl]imidazo[4,5-c]quinolin-4-amine], on human TLR8, the “MEC to Produce TLR Activation TLR 8” value was found to be 30 µM. Besides, the “MEC to Produce TLR Activation TLR 7” value at human TLR7 was 0.12 µM.
For `CCOC[C@@H](C(C)C)n1cnc2c(N)nc3ccccc3c21` [Example 2, 1-[(1R)-1-(ethoxymethyl)-2-methyl-propyl]imidazo[4,5-c]quinolin-4-amine] the same measures were above 30 µM and 3.3 µM.
For `CCOC[C@H](C(C)C)n1c(C)nc2c(N)nc3ccccc3c21` [Example 3, 1-[(1S)-1-(ethoxymethyl)-2-methyl-propyl]-2-methyl-imidazo[4,5-c]quinolin-4-amine] the same measures were 30 µM and 1.1 µM.
Taken in the same sequence, the figures for `CCOC[C@@H](C(C)C)n1c(C)nc2c(N)nc3ccccc3c21` [Example 4, 1-[(1R)-1-(ethoxymethyl)-2-methyl-propyl]-2-methyl-imidazo[4,5-c]quinolin-4-amine] were above 30 µM and above 30 µM.
Consider `CCOC[C@@H](n1cnc2c(N)nc3ccccc3c21)C(C)(C)O` [Example 5, (3R)-3-(4-aminoimidazo[4,5-c]quinolin-1-yl)-4-ethoxy-2-methyl-butan-2-ol], for which the “MEC to Produce TLR Activation TLR 8” value at human TLR8 is 3.3 µM. In addition, the “MEC to Produce TLR Activation TLR 7” value on human TLR7 is at most 0.01 µM.
Taken in the same sequence, the figures for `CCOC[C@H](n1cnc2c(N)nc3ccccc3c21)C(C)(C)O` [Example 6, (3S)-3-(4-aminoimidazo[4,5-c]quinolin-1-yl)-4-ethoxy-2-methyl-butan-2-ol] were above 30 µM and above 30 µM.
Taken in the same sequence, the figures for `CCOC[C@@H](n1c(C)nc2c(N)nc3ccccc3c21)C(C)(C)O` [Example 7, (3R)-3-(4-amino-2-methyl-imidazo[4,5-c]quinolin-1-yl)-4-ethoxy-2-methyl-butan-2-ol] were 1.1 µM and 0.37 µM.
Taken in the same sequence, the figures for `CCOC[C@@H](n1c(CC)nc2c(N)nc3ccccc3c21)C(C)(C)O` [Example 8, (3R)-3-(4-amino-2-ethyl-imidazo[4,5-c]quinolin-1-yl)-4-ethoxy-2-methyl-butan-2-ol] were 10 µM and 10 µM.
As to `CCOC[C@@H](n1cnc2c(N)nc3ccccc3c21)C(C)(C)C` [Example 9, 1-[(1S)-1-(ethoxymethyl)-2,2-dimethyl-propyl]imidazo[4,5-c]quinolin-4-amine], the “MEC to Produce TLR Activation TLR 8” value at human TLR8 was found to be 30 µM. Further, the “MEC to Produce TLR Activation TLR 7” value on human TLR7 was at most 0.01 µM.
For `CCOC[C@H](n1cnc2c(N)nc3ccccc3c21)C(C)(C)C` [Example 10, 1-[(1R)-1-(ethoxymethyl)-2,2-dimethyl-propyl]imidazo[4,5-c]quinolin-4-amine] the same measures were above 30 µM and 30 µM.
For `COC[C@@H](n1cnc2c(N)nc3ccccc3c21)C(C)(C)C` [Example 11, 1-[(1S)-1-(methoxymethyl)-2,2-dimethyl-propyl]imidazo[4,5-c]quinolin-4-amine] the same measures were above 30 µM and 0.04 µM.
For `CCOC[C@@H](n1cnc2c(N)nc3ccccc3c21)C(O)(CC)CC` [Example 12, (2R)-2-(4-aminoimidazo[4,5-c]quinolin-1-yl)-1-ethoxy-3-ethyl-pentan-3-ol] the same measures were 30 µM and 0.04 µM.
Take `CCO[C@@H](C)[C@@H](n1cnc2c(N)nc3ccccc3c21)C(C)(C)O` [Example 13, (3R,4S)-3-(4-aminoimidazo[4,5-c]quinolin-1-yl)-4-ethoxy-2-methyl-pentan-2-ol]: on human TLR8, the “MEC to Produce TLR Activation TLR 8” value came out at 10 µM. Also, the “MEC to Produce TLR Activation TLR 7” value on human TLR7 was 3.3 µM.
